These results are taken from US20250213560A1, “NITROGEN-CONTAINING HETEROCYCLIC COMPOUNDS HAVING PHENYL GROUP AND USES THEREOF” (BNH RESEARCH CO., LTD., priority 2022, published 2025).

One data set deals with HDAC 1 to 9, and 11. Briefly: HDAC catalytic activity assay (fluorogenic substrate, 10-dose IC50). Type of data set: biochemical. The conditions noted are these: 3-fold serial dilution starting at 100 μM, duplicates. Here is the method:
The compound was resuspended in 100 mM DMSO and tested in a 10-dose IC50 with 3-fold serial dilution starting at 100 μM against HDACs 1-9, and 11. As reference compounds, Trichostatin A (TSA) and TMP269 were tested in a 10-dose IC50 with 3-fold serial dilution starting at 10 μM or 1 μM.
10 μM Fluorogenic peptide from p53 residues 379-382 (RHKK (Ac) AMC) was used for the substrate for HDAC 1, 2, 3, and 6. 50 μM Fluorogenic HDAC Class2a Substrate (Trifluoroacetyl Lysine) was used for the substrate for HDAC 4, 5, 7, 9, and 11. 100 μM Fluorogenic peptide from p53 residues 379-382 (RHK (Ac) K (Ac) AMC) was used for the substrate for HDAC8.
IC50 values were calculated using the GraphPad Prism 4 program based on a sigmoidal dose-response equation and the blank (DMSO) value concentration was entered as 1.00E-12 M for curve fitting.
The experiments were performed in duplicates.

In another data set the test system is BDNF. Briefly: BDNF expression in SH-SY5Y cells. Type of data set: cell-based, human. Conditions: 1 μM, application for 6 and 24 hours. The protocol: (§1) Human undifferentiated neuroblastoma cell line SH-SY5Y and human embryonic kidney cell line (HEK)-293T were purchased from Korean Cell Line Bank (Korea) and Takara (Japan), respectively. Cells were grown in HyClone Minimal Essential Medium (MEM) and Dulbecco's Modified Eagle Medium (DMEM), respectively, supplemented with 10% (v/v) fetal bovine serum (FBS), penicillin (100 U/mL), and streptomycin ([…]). Cells were maintained in a humidified atmosphere of 95% air and 5% CO2 at 37° C. Cells were passaged 10 times at maximum. Cells were dissociated using 0.05% trypsin-EDTA solution and the cells were seeded in new culture dishes for maintenance.
RT-PCR was used to measure the amount of BDNF and GluN2B in response to compounds of the present disclosure. 293T cells were dissociated using 0.05% Trypsin-EDTA solution and seeded in 24 well or 6 well dishes for RNA work. After incubation at 37° C. in a humidified atmosphere with 5% CO2 for 24 hours, the culture medium was replaced by a medium containing a series of concentrations of tested compounds diluted with the DMEM without FBS. Time course experiments were performed. The same volume of DMSO was used for negative control.
Similarly, BnH12003 (1 μM) augmented BDNF and GluN2B expression by application for 6 and 24 hours in SH-SY5Y cells (FIGS. 11A and 11B).

The next data set concerns SH-SY5Y cells. Briefly: Cytotoxicity test (CCK-8 cell viability) in SH-SY5Y cells. The format is cell-based, human. Conditions: SH-SY5Y, 0, 0.1, 1, 10, 100 μM, 24 hours. The protocol: as §1, with “maintenance. […]” for “maintenance.”
The time of co-incubation was 24 hours and six replicates were made for each measurement. Finally, 10 μL of CCK-8 reagent (Dojindo Laboratories, Rockville, MD) was added to each well, and after incubation at 37° C. for 3 minutes, the OD at 450 nm was measured using a multifunction microplate reader (Tecan Infinite M200 Pro). These measurements were compared to that of a control and expressed as a percentage of the control to calculate cell viability. The IC50 value was calculated using SPSS software. To do this, the absorbance of the blank wells with only growth medium is subtracted from the values or the wells with cells. […]
The cytotoxicity of the compound was evaluated by treating cells with BnH12003 and measuring cell viability.

SMILES strings stand for the structures.

In the case of `C[C@H]1CC[C@@H](C(=O)O)CN1C(=O)Cc1ccc(-c2cncnc2)cc1` [BnH12003, (3R,6S)-6-methyl-1-(2-(4-(pyrimidin-5-yl)phenyl)acetyl) piperidine-3-carboxylic acid], the “inhibitory effect on HDAC catalytic activities (10-dose IC50)” value with HDAC 1 to 9, and 11 is listed as “did not show any inhibitory effect”. For the same molecule, the BDNF expression result in the data set with BDNF was “augmented”. In addition, the cell viability result in the data set on SH-SY5Y cells is “no significant change in cell viability”.
